Experimental data taken from the NIST ThermoML archive (doi:10.1021/je800110r).

Settings: Liquid, Vibrating tube method

CCCCCCCCCC [decane]
Settings | mass density [kg/m3]
323.16 K, 1778 kPa | 708.5
323.16 K, 1812 kPa | 708.4
323.16 K, 1848 kPa | 708.5
323.16 K, 1871 kPa | 708.5
323.16 K, 1898 kPa | 708.7
323.16 K, 1945 kPa | 708.7
323.16 K, 1973 kPa | 708.7
323.16 K, 2008 kPa | 708.6
323.16 K, 2050 kPa | 708.7
323.16 K, 2081 kPa | 708.7
323.16 K, 2113 kPa | 708.8
323.16 K, 2151 kPa | 708.7
323.16 K, 2201 kPa | 708.9
323.16 K, 2247 kPa | 708.9
323.16 K, 2281 kPa | 708.8
323.16 K, 2332 kPa | 708.9
323.16 K, 2405 kPa | 709.1
323.16 K, 2718 kPa | 709.4
323.16 K, 2738 kPa | 709.3
323.16 K, 2755 kPa | 709.4
323.16 K, 2772 kPa | 709.4
323.16 K, 2789 kPa | 709.5
323.16 K, 2809 kPa | 709.5
323.16 K, 2845 kPa | 709.6
333.14 K, 21082 kPa | 717.8
333.14 K, 21129 kPa | 717.8
333.14 K, 26540 kPa | 722.1
333.14 K, 26569 kPa | 722.1
333.14 K, 26609 kPa | 722
333.14 K, 26648 kPa | 722.2
333.14 K, 26696 kPa | 722.2
333.14 K, 26733 kPa | 722.2
333.14 K, 26773 kPa | 722.3
333.14 K, 26813 kPa | 722.3
333.14 K, 26859 kPa | 722.4
333.14 K, 26912 kPa | 722.4
333.14 K, 26958 kPa | 722.4
333.14 K, 26993 kPa | 722.4
333.14 K, 27039 kPa | 722.4
333.14 K, 27087 kPa | 722.4
333.14 K, 27129 kPa | 722.6
333.14 K, 27171 kPa | 722.5
333.14 K, 27219 kPa | 722.5
333.14 K, 30020 kPa | 724.6
333.14 K, 30058 kPa | 724.6
333.14 K, 30100 kPa | 724.7
333.14 K, 30134 kPa | 724.7
333.14 K, 30168 kPa | 724.7
333.14 K, 30197 kPa | 724.7
333.14 K, 30227 kPa | 724.8
333.14 K, 30265 kPa | 724.9
333.14 K, 30291 kPa | 724.8
333.14 K, 30312 kPa | 724.8
333.14 K, 30350 kPa | 724.9
333.14 K, 30376 kPa | 724.8
333.14 K, 30402 kPa | 724.9
333.14 K, 30432 kPa | 724.9
333.14 K, 30458 kPa | 724.9
333.14 K, 30480 kPa | 725
333.14 K, 30502 kPa | 725
333.14 K, 30528 kPa | 725
333.14 K, 30566 kPa | 725
333.14 K, 30592 kPa | 724.9
333.14 K, 30623 kPa | 725
333.14 K, 30654 kPa | 725.2
333.14 K, 30689 kPa | 725.2
333.14 K, 31374 kPa | 725.5
333.14 K, 31402 kPa | 725.6
333.14 K, 31439 kPa | 725.6
